The source made the active and inactive calls.

The target in test [1] is T1, Streptokinase A (Streptococcus pyogenes serotype M1, UniProt P10520).
T1 sequence (P10520 whole entry): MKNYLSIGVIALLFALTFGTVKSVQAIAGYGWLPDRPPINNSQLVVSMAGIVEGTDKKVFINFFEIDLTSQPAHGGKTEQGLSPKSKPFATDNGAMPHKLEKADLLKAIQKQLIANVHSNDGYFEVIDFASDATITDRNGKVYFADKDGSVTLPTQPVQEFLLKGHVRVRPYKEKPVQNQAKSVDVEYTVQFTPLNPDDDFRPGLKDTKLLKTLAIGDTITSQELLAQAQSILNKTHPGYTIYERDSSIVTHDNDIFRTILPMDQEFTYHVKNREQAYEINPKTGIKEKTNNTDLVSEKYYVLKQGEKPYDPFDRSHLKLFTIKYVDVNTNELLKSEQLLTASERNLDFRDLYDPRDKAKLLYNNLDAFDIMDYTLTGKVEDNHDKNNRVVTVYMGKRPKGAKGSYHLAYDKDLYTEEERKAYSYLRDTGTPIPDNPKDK
As to the kind of experiment: viability-normalized secreted streptokinase activity reduction – plasminogen activation absorbance, OD405, dose response (AID 1914).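 Also: secreted streptokinase activity via plasminogen activation per viability signal from cell pellet.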 The test is classed as functional, Streptococcus pyogenes M1 GAS.

Test [2] has as its target T2, Long-chain-fatty-acid--AMP ligase FadD28 (Mycobacterium tuberculosis, UniProt P9WQ59).
T2 sequence (P9WQ59 whole entry): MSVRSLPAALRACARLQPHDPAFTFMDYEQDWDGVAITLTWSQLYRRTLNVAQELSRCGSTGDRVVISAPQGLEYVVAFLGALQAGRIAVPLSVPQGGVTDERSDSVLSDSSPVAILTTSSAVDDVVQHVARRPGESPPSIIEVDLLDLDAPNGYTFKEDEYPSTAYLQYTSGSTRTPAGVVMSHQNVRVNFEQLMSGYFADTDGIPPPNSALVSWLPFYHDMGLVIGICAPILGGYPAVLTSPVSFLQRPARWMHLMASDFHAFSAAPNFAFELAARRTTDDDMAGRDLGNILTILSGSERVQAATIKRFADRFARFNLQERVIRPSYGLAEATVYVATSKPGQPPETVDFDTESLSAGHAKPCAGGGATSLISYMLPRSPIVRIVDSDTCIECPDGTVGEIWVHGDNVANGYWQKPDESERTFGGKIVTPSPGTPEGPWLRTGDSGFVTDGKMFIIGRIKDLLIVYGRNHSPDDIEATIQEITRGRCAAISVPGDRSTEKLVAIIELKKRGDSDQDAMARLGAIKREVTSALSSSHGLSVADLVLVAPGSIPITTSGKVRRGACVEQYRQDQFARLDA
The test is described as follows: Fluorescence polarization aasay to screen for inhibitors that compete for the binding of FadD28 to a bisubstrate Measured in Biochemical System Using Plate Reader - 2147-01_Inhibitor_Dose_CherryPick_Activity. The test is classed as functional, Mycobacterium tuberculosis H37Rv.

Test [3] concerns the target T3, Histone-lysine N-methyltransferase NSD2 (Homo sapiens, UniProt O96028).
T3 sequence (O96028 whole entry): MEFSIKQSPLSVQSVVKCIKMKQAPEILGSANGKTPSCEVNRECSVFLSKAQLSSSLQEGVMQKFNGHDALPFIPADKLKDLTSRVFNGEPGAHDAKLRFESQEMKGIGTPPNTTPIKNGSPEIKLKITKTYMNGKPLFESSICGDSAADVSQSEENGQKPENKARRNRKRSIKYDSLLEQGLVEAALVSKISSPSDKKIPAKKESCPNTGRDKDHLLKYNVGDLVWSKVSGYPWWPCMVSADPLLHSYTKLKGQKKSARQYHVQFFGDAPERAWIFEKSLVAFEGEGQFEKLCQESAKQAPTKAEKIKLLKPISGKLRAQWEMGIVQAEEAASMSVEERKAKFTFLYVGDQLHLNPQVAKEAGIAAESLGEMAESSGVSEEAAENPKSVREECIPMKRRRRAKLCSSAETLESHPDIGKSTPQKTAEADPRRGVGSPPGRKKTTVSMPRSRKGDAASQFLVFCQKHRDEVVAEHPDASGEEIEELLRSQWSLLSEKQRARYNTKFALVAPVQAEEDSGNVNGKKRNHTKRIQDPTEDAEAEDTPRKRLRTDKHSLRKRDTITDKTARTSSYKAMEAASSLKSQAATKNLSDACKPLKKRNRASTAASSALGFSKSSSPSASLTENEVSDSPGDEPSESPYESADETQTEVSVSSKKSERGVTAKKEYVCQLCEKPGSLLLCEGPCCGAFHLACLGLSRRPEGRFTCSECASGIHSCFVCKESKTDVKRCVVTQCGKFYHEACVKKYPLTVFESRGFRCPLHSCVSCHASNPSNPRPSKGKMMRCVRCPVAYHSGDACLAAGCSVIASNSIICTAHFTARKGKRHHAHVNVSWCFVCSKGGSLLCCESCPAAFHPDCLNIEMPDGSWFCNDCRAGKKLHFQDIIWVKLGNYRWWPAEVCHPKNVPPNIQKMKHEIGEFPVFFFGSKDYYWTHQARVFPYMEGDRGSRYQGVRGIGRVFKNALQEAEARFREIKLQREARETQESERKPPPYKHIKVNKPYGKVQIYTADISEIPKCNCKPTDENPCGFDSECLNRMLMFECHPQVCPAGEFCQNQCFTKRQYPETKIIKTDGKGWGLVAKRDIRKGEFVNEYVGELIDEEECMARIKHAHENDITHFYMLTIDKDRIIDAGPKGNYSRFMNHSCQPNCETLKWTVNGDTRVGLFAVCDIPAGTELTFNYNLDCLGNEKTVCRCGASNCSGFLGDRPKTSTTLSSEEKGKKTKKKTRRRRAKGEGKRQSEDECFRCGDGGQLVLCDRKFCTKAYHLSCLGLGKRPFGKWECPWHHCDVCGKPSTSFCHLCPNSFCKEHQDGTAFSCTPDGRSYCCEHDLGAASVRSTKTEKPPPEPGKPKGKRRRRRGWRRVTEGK
The test is classed as biochemical.

The target of test [4] is Genome polyprotein (dengue virus type 2, UniProt P29990). As to the kind of experiment: flavivirus cap methylation enzyme inhibition – biochemical, confirmation dose response, primary screen (AID 588689). The test is classed as functional.
Test [5] has as its target Tyrosine-protein kinase Lyn (Homo sapiens, UniProt P07948). The test is classed as functional.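 Also: lyn as one member of a kinase panel.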
Test [6] concerns the target STE20-like serine/threonine-protein kinase (Homo sapiens, UniProt Q9H2G2). The test is classed as functional.
The target of test [7] is Testis-specific serine/threonine-protein kinase 1 (Homo sapiens, UniProt Q9BXA7). The test is classed as functional.
Test [8] deals with Vascular endothelial growth factor receptor 3 (Homo sapiens, UniProt P35916). The test is classed as functional.
Test [9] concerns the target Proto-oncogene tyrosine-protein kinase ROS (Homo sapiens, UniProt P08922). The test is classed as functional.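 Also: ROS1 tested as one member of a kinome-wide kinase panel.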
Test [10] deals with Proto-oncogene tyrosine-protein kinase Src (Homo sapiens, UniProt P12931). The test is classed as functional.
The target of test [11] is Tyrosine-protein kinase SYK (Homo sapiens, UniProt P43405). The test is classed as functional.
Test [12] concerns the target Ribosomal protein S6 kinase beta-1 (Homo sapiens, UniProt P23443). The test is classed as functional.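 Also: measured as one member of a kinome-wide profiling panel.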

Chain of Genome polyprotein (P29990 2492-3391 limits assumed): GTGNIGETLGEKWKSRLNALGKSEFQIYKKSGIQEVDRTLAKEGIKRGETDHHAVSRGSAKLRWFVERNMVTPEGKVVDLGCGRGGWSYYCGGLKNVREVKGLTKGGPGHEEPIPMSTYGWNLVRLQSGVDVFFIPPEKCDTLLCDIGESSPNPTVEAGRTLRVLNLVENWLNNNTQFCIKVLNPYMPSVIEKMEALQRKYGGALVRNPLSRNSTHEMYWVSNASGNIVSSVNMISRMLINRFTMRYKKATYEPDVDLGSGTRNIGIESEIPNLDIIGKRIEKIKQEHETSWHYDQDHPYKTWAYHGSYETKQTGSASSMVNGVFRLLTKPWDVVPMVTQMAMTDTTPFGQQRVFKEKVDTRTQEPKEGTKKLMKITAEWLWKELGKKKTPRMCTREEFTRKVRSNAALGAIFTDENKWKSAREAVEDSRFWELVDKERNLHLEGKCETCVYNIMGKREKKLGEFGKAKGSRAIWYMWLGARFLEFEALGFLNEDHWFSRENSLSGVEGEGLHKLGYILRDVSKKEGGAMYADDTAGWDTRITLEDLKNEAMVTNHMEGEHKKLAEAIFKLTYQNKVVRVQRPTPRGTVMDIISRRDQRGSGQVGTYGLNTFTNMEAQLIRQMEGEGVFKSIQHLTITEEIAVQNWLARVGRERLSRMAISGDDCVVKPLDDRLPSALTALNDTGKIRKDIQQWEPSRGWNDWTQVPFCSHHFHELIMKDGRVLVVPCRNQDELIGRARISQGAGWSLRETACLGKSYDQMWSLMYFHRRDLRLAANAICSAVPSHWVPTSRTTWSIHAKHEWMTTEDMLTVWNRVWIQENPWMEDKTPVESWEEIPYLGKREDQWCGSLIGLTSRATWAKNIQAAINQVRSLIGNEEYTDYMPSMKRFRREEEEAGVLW
Chain of Proto-oncogene tyrosine-protein kinase Src (P12931 2-536 limits assumed): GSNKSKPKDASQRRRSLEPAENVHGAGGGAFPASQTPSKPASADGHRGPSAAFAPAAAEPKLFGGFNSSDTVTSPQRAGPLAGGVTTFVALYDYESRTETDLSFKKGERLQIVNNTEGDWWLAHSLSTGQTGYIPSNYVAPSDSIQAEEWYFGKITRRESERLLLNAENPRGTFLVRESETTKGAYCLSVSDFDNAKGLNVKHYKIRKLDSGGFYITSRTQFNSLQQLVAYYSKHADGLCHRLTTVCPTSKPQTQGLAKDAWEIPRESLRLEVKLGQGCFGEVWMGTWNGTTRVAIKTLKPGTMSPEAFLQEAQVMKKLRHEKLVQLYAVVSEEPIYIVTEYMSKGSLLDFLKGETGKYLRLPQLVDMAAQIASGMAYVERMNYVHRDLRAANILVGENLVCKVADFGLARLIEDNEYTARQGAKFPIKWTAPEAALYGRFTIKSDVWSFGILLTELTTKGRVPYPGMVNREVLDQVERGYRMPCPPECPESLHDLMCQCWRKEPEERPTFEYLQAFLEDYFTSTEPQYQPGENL
Chain of STE20-like serine/threonine-protein kinase (Q9H2G2 whole entry): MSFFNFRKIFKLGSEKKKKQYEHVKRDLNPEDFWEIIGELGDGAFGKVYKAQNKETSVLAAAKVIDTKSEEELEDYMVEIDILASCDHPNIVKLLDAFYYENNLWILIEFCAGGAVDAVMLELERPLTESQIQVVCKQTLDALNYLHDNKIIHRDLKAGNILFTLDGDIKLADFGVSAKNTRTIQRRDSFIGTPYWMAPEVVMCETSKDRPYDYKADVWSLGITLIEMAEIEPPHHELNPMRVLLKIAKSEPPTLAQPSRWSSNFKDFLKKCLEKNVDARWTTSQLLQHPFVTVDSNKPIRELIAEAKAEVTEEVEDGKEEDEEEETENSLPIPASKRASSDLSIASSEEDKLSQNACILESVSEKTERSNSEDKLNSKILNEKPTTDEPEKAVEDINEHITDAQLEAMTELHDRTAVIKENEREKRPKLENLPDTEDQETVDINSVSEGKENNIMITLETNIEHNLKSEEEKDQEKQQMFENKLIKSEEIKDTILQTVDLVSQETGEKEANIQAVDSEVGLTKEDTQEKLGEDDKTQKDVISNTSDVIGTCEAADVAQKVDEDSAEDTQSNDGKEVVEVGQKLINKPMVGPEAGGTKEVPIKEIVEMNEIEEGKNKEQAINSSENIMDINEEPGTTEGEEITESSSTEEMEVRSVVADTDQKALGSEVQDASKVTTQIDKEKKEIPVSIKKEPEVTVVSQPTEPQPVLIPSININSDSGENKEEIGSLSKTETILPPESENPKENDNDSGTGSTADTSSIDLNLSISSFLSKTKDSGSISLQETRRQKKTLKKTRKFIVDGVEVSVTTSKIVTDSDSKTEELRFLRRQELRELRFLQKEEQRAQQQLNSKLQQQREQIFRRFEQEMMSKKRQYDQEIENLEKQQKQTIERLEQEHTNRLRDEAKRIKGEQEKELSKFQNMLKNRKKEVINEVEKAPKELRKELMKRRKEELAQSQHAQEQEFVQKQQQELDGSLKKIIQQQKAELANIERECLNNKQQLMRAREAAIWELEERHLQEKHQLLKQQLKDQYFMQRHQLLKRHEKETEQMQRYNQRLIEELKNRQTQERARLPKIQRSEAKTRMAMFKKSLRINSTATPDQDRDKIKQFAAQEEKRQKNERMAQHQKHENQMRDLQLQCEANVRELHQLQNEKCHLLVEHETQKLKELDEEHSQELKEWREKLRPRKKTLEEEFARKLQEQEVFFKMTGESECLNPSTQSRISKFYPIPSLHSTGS
Chain of Vascular endothelial growth factor receptor 3 (P35916 whole entry): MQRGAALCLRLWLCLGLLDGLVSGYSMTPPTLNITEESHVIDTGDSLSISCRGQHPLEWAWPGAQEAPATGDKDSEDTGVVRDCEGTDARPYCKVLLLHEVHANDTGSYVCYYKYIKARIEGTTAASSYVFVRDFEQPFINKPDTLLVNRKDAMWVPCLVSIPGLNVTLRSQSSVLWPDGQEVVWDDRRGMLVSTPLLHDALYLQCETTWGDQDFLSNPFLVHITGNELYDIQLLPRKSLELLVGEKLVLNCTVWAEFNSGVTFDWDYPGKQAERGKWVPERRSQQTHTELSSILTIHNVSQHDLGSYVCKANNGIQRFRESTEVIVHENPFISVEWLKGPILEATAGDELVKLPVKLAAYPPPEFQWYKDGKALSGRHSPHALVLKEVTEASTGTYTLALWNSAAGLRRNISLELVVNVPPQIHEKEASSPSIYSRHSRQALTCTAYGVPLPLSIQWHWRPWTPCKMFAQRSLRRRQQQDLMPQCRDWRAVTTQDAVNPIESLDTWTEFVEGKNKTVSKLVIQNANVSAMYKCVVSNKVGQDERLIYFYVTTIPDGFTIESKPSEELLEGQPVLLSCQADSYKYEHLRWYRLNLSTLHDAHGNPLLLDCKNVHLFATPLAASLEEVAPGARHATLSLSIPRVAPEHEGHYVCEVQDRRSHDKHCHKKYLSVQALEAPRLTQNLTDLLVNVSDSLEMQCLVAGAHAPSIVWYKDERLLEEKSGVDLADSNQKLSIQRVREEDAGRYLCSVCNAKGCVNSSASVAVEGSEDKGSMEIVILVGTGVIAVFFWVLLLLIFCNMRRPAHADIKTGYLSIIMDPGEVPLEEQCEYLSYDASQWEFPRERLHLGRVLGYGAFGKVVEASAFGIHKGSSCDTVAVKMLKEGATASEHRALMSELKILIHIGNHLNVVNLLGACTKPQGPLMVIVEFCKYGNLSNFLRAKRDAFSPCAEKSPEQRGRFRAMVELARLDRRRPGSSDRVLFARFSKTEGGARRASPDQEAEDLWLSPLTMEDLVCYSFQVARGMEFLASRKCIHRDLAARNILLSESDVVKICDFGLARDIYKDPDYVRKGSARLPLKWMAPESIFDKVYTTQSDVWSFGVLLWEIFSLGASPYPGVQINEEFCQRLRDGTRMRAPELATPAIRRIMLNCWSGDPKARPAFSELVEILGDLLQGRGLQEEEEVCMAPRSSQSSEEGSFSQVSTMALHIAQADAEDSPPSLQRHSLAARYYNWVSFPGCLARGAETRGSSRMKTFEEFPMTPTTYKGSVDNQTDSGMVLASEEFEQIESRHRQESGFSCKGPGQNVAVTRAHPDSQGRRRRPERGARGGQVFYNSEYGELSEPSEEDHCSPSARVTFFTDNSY
Chain of Ribosomal protein S6 kinase beta-1 (P23443 whole entry): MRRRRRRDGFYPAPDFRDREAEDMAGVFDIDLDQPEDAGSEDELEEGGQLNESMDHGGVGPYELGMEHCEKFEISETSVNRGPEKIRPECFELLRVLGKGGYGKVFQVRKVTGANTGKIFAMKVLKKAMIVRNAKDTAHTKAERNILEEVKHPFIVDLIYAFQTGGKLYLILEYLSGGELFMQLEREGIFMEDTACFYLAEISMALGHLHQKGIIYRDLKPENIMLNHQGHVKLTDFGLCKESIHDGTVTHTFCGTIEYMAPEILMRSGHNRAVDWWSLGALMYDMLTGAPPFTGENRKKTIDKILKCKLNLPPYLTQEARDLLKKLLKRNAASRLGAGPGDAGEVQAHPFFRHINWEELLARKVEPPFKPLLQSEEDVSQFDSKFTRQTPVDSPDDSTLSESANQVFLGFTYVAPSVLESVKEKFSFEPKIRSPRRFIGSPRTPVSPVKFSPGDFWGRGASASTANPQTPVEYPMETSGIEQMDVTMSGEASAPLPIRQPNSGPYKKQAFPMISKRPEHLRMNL
Chain of Testis-specific serine/threonine-protein kinase 1 (Q9BXA7 whole entry): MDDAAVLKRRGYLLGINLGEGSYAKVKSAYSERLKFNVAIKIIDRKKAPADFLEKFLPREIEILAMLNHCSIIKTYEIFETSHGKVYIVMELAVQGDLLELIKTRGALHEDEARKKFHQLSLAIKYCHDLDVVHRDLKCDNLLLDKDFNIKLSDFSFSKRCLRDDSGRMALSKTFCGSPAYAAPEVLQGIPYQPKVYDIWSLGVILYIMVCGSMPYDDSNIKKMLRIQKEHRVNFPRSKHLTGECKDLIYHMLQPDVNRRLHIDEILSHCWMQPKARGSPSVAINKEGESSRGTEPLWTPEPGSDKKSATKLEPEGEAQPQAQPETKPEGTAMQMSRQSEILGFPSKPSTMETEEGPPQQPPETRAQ

On to `CC(/C=C1\SC(=S)N(NS(=O)(=O)c2ccc(C)cc2)C1=O)=C\c1ccccc1`, for which, in test [1], the EC50 is listed as > 150 µM (not active). The AC50 in [2] is > 100 µM (inactive); in test [3], 9.98 µM (active). The IC50 in test [4] is 27.1 µM (active).
For `CN1CCC(c2c(O)cc(O)c3c(=O)cc(-c4ccccc4Cl)oc23)C(O)C1` (configuration not stated), the Ki in test [5] was > 1.58 µM (inactive); in test [6], > 10 µM (inactive); in test [7], > 1.58 µM (inactive); in [8] it was > 6.31 µM (inactive); in test [9], 251 nM (active); in test [10], > 2 µM (inactive). For the same molecule, the Ki in [11] was 794 nM (active); in test [12], > 6.31 µM (inactive).

One may read the EC50 as the concentration needed to bring the measured effect to its halfway point. Usually AC50 stands for the midpoint of the concentration-response curve, whichever way the signal moves. A word on the IC50: it is the concentration that inhibits the measured activity by half. The Ki is a dissociation constant, usually derived from enzyme kinetics or from competition with a known ligand.

These data come from ChEMBL document CHEMBL1201862, “PubChem BioAssay data set” (2004).
